Test results as given in ChEMBL document CHEMBL5241094 (J Med Chem, 2021).
≈ marks a conversion by molar mass, not a printed value.

Columns and labels:
[1] = Oral bioavailability in C57/BL6 mouse at 30 mg/kg administered as homogeneous suspension in 0.5% methocel/0.25% tween20 in 50 mM acetate buffer (pH 5.5) and measured after 2 hrs by HPLC-MS/MS analysis; type: ADME, organism-based; conditions: in vivo
[2] = in vivo; conditions: C57BL/6, mouse, iv, 0.2 mg/kg
[3] = in vivo; conditions: C57BL/6, mouse, iv, 0.2 mg/kg; remark: listed apart in the source
[4] = physchem; conditions: PBS buffer, pH 7.4

Structure (SMILES) | bioavailability [1] [%] | clearance at 2 h [2] [mL/min/kg] | Vd at 2 h [3] [L/kg] | solubility at 24 h [4] [µg/mL]
Cc1cc(C#Cc2ccccc2NS(=O)(=O)c2c(C)ccc3cccnc23)cnc1C(=O)O | 45 | 31.7 | 1.9 | 384 (≈ 839 µM)
CCOc1ccc(S(=O)(=O)Nc2ccccc2C#Cc2ccc(C(=O)O)nc2)c2ncccc12 | – | 10 | 0.4 | –
COc1ccc(S(=O)(=O)Nc2ccccc2C#Cc2ccc(C(=O)O)nc2)c2ncccc12 | – | 6.67 | 0.6 | 445 (≈ 968 µM)
